Data on 15 molecules can be found in patent publication US9029373B2, “Kinase inhibitors” (Chiesi Farmaceutici S.p.A., priority 2011, dated 2015).

Usually IC50 stands for the concentration at which inhibition is half-maximal.

For one assay, the target named is T1, p38alpha (Homo sapiens, UniProt Q16539).
T1 construct: purchased Invitrogen PV3304
Nature of the assay: P38alpha enzyme inhibition assay (Alphascreen kinase activity assay). It is filed as biochemical. Conditions: 100 pM p38alpha, 250 μM ATP, 2 hours pre-incubation at 25° C., ATF-2 fusion protein substrate; read-out: p38α inhibition (IC50 values). Here is the method:
P38alpha Enzyme Inhibition Assay.
The inhibitory activity of compounds was determined using an Alphascreen® (Perkin Elmer) based kinase activity assay. Kinase reactions consisted of 25 mM HEPES pH 7.5, 10 mM MgCl2, 100 μM Na3VO4, 2 mM DTT, 0.05 mg/ml Tween 20, 100 pM p38alpha (Invitrogen, PV3304), 1% DMSO and 0.3 μg/ml ATF-2 fusion protein (New England Biolabs, 9224). Compounds were incubated under these conditions for 2 hours, at 25° C., prior to the initiation of the kinase activity by the addition of the 250 μM ATP. Reaction volumes were 20 uL. After 1 hr at 25° C. reactions were stopped by the adding 10 uL of 25 mM HEPES pH 7.5 containing 62.5 mM EDTA, 0.05% Triton X-100, 10% BSA and 0.83 ng/uL anti-phospho-ATF2 antibody (Abeam, ab28812). Detection was performed by measuring luminescence following the addition of Alphascreen Donor beads (Perkin Elmer 6765300) and Protein A Alphascreen Acceptor beads (Perkin Elmer 6760137), both at a final concentration of 20 ug/ml. IC50 values were determined from concentration-response curves.

The subject of assay [1] is LPS-stimulated PBMC TNFα release. Nature of the assay: LPS-stimulated PBMC TNFα release assay. It is filed as cell-based. To be noted: human PBMCs, LPS 10 ng/ml, 18 h, TNFα by ELISA, at least three separate experiments, read-out: p38α inhibition (IC50 values), inhibition of TNFα release. Here is the method:
LPS-Stimulated PBMC TNFα Release Assay.
Peripheral Blood Mononuclear Cells (PBMCs) were isolated from healthy human volunteer blood using a standard density gradient centrifugation technique. Citrated blood was placed onto Histopaque™ and centrifuged. The PBMCs were removed from the density gradient interface and washed in phosphate buffered saline (PBS). The PBMCs were suspended in RPMI 1640 medium (without serum), dispensed into a 96-well plate and incubated at 37° C. for 3 h in a humidified incubator. After incubation, the medium was replaced (with medium containing 1% foetal bovine serum), and the plate incubated at 37° C., for 1 h, in the presence of test compound or the appropriate vehicle. LPS (10 ng/ml), or an appropriate vehicle control, was then added to the cells, and the plate returned to the incubator for 18 h. Cell-free supernatants were removed and assayed for TNFα levels using an ELISA kit from R&D Systems.
A dose response curve to each test compound was performed and the effect of compound in each experiment was expressed as a percentage inhibition of the control TNFα release. Dose response curves were plotted and compound potency (IC50) was determined. Compounds were tested in at least three separate experiments.
For orientation: In an ELISA, binding on a coated surface is turned into a signal by an enzyme label.

The structures appear in SMILES notation. Where a name gives a salt, the structure may show the parent alone.

T1 sequence (Q16539 whole entry): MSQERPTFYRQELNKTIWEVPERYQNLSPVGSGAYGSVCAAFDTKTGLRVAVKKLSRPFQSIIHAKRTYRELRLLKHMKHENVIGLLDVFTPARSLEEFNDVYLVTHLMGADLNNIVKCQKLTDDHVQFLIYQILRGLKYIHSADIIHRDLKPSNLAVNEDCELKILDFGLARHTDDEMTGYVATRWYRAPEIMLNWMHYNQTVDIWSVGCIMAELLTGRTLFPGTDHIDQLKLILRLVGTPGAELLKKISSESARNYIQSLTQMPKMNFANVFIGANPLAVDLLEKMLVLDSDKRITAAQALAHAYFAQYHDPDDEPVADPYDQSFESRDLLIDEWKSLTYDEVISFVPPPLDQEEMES

As for `CC(C)c1nnc2ccc(O[C@H]3CC[C@H](NC(=O)Nc4cc(C(C)(C)C)nn4-c4ccc(CO)cc4)c4ccccc43)cn12` [Example 15, 1-[5-tert-Butyl-2-(4-hydroxymethyl-phenyl)-2H-pyrazol-3-yl]-3-[(1S,4S)-4-(3-isopropyl-[1,2,4]triazolo[4,3-a]pyridin-6-yloxy)-1,2,3,4-tetrahydro-naphthalen-1-yl]-urea], the half-maximal inhibitory concentration (IC50) (at p38alpha; in assay [1]) was under 10 nM in each case.

Regarding `CC(C)c1nnc2ccc(O[C@@H]3CC[C@H](NC(=O)Nc4cc(C(C)(C)C)nn4C4CCN(C)CC4)c4ccccc43)cn12` [Example 17, 1-[5-tert-Butyl-2-(1-methyl-piperidin-4-yl)-2H-pyrazol-3-yl]-3-[(1S,4R)-4-(3-isopropyl-[1,2,4]triazolo[4,3-a]pyridin-6-yloxy)-1,2,3,4-tetrahydro-naphthalen-1-yl]-urea], the values for the IC50 (at p38alpha; in assay [1]) were under 10 nM and 100 to 1000 nM, respectively.

As for `CC(C)c1nnc2ccc(O[C@@H]3CC[C@H](NC(=O)Nc4cc(C(C)(C)C)nn4CCN4CCOCC4)c4ccccc43)cn12` [Example 18, 1-[5-tert-Butyl-2-(2-morpholin-4-yl-ethyl)-2H-pyrazol-3-yl]-3-[(1S,4R)-4-(3-isopropyl[1,2,4]triazolo[4,3-a]pyridin-6-yloxy)-1,2,3,4-tetrahydro-naphthalen-1-yl]-urea], the IC50 on p38alpha is under 10 nM; in assay [1], 10 to 100 nM.

With `CC(C)c1nnc2ccc(O[C@@H]3CC[C@H](NC(=O)Nc4cc(C(C)(C)C)nn4C)c4cc(F)ccc43)cn12` [Example 19, 1-(5-tert-Butyl-2-methyl-2H-pyrazol-3-yl)-3-[(1S,4R)-7-fluoro-4-(3-isopropyl-[1,2,4]triazolo[4,3-a]pyridin-6-yloxy)-1,2,3,4-tetrahydro-naphthalen-1-yl]-urea], the concentration for half-maximal inhibition (IC50) on p38alpha was under 10 nM; in assay [1] it was 10 to 100 nM.

With `CC(C)c1nnc2ccc(O[C@@H]3CC[C@H](NC(=O)Nc4cc(C(C)(C)C)nn4-c4cccc(OCCN5CCC(O)CC5)c4)c4ccccc43)cn12` [Example 22, 1-(5-tert-Butyl-2-{3-[2-(4-hydroxy-piperidin-1-yl)-ethoxy]-phenyl}-2H-pyrazol-3-yl)-3-[(1S,4R)-4-(3-isopropyl-[1,2,4]triazolo[4,3-a]pyridin-6-yloxy)-1,2,3,4-tetrahydro-naphthalen-1-yl]-urea formate salt], the figures for the IC50 (at p38alpha; in assay [1]) were under 10 nM and 10 to 100 nM, respectively.

On to `CC(C)c1nnc2ccc(O[C@@H]3CC[C@H](NC(=O)Nc4cc(C(C)(C)C)nn4-c4cccc(N5CCOCC5)c4)c4ccccc43)cn12` [Example 23, 1-[5-tert-Butyl-2-(3-morpholin-4-yl-phenyl)-2H-pyrazol-3-yl]-3-[(1S,4R)-4-(3-isopropyl-[1,2,4]triazolo[4,3-a]pyridin-6-yloxy)-1,2,3,4-tetrahydro-naphthalen-1-yl]-urea], for which the concentration for half-maximal inhibition (IC50) (on p38alpha; in assay [1]) was under 10 nM each time.

On to `CC(C)(C)c1cc(NC(=O)N[C@H]2CC[C@@H](Oc3ccc4nnc(-c5c(Cl)cccc5Cl)n4c3)c3ccccc32)n(CCO)n1` [Example 26, 1-[5-tert-Butyl-2-(2-hydroxy-ethyl)-2H-pyrazol-3-yl]-3-{(1S,4R)-4-[3-(2,6-dichloro-phenyl)-[1,2,4]triazolo[4,3-a]pyridin-6-yloxy]-1,2,3,4-tetrahydro-naphthalen-1-yl}-urea], for which the half-inhibitory concentration (IC50) (at p38alpha; in assay [1]) was under 10 nM throughout.

Consider `CC(C)(C)c1cc(NC(=O)N[C@H]2CC[C@@H](Oc3ccc4nnc(-c5c(Cl)cccc5Cl)n4c3)c3ccccc32)n(CCN2CCOCC2)n1` [Example 27, 1-[5-tert-Butyl-2-(2-morpholin-4-yl-ethyl)-2H-pyrazol-3-yl]-3-{(1S,4R)-4-[3-(2,6-dichloro-phenyl)-[1,2,4]triazolo[4,3-a]pyridin-6-yloxy]-1,2,3,4-tetrahydro-naphthalen-1-yl}-urea formate salt], for which the IC50 (at p38alpha; in assay [1]) was under 10 nM throughout.

Turning to `CN(C)CCn1nc(C(C)(C)C)cc1NC(=O)N[C@H]1CC[C@@H](Oc2ccc3nnc(-c4c(Cl)cccc4Cl)n3c2)c2ccccc21` [Example 28, 1-[5-tert-Butyl-2-(2-dimethylamino-ethyl)-2H-pyrazol-3-yl]-3-{(1S,4R)-4-[3-(2,6-dichloro-phenyl)-[1,2,4]triazolo[4,3-a]pyridin-6-yloxy]-1,2,3,4-tetrahydro-naphthalen-1-yl}-urea formate salt], the IC50 (on p38alpha; in assay [1]) was under 10 nM throughout.

In the case of `CC(C)(C)c1cc(NC(=O)N[C@H]2CC[C@@H](Oc3ccc4nnc(-c5c(Cl)cccc5Cl)n4c3)c3ccccc32)n(CCN2CCCCC2)n1` [Example 29, 1-[5-tert-Butyl-2-(2-piperidin-1-yl-ethyl)-2H-pyrazol-3-yl]-3-{(1S,4R)-4-[3-(2,6-dichloro-phenyl)-[1,2,4]triazolo[4,3-a]pyridin-6-yloxy]-1,2,3,4-tetrahydro-naphthalen-1-yl}-urea formate salt], the IC50 (on p38alpha; in assay [1]) was under 10 nM each time.

For the molecule `CN1CCN(CCn2nc(C(C)(C)C)cc2NC(=O)N[C@H]2CC[C@@H](Oc3ccc4nnc(-c5c(Cl)cccc5Cl)n4c3)c3ccccc32)CC1` [Example 30, 1-{5-tert-Butyl-2-[2-(4-methyl-piperazin-1-yl)-ethyl]-2H-pyrazol-3-yl}-3-{(1S,4R)-4-[3-(2,6-dichloro-phenyl)-[1,2,4]triazolo[4,3-a]pyridin-6-yloxy]-1,2,3,4-tetrahydro-naphthalen-1-yl}-urea formate salt], the half-inhibitory concentration (IC50) (on p38alpha; in assay [1]) was under 10 nM each time.

In the case of `CC(C)(C)c1cc(NC(=O)N[C@H]2CC[C@@H](Oc3ccc4nnc(-c5ccccc5Cl)n4c3)c3ccccc32)n(CCO)n1` [Example 31, 1-[5-tert-Butyl-2-(2-hydroxy-ethyl)-2H-pyrazol-3-yl]-3-{(1S,4R)-4-[3-(2-chloro-phenyl)-[1,2,4]triazolo[4,3-a]pyridin-6-yloxy]-1,2,3,4-tetrahydro-naphthalen-1-yl}-urea], the half-maximal inhibitory concentration (IC50) (on p38alpha; in assay [1]) was under 10 nM each time.

Take `CC(C)(C)c1cc(NC(=O)N[C@H]2CC[C@@H](Oc3ccc4nnc(-c5ccccc5Cl)n4c3)c3ccccc32)n(CCN2CCOCC2)n1` [Example 32, 1-[5-tert-Butyl-2-(2-morpholin-4-yl-ethyl)-2H-pyrazol-3-yl]-3-{(1S,4R)-4-[3-(2-chloro-phenyl)-[1,2,4]triazolo[4,3-a]pyridin-6-yloxy]-1,2,3,4-tetrahydro-naphthalen-1-yl}-urea formate salt]: the half-inhibitory concentration (IC50) (on p38alpha; in assay [1]) was under 10 nM throughout.

For the molecule `Cn1nc(C(C)(C)C)cc1NC(=O)N[C@H]1CC[C@@H](Oc2ccc3nnc(-c4c(Cl)cccc4Cl)n3c2)c2ccccc21` [Example 33, 1-(5-tert-Butyl-2-methyl-2H-pyrazol-3-yl)-3-{(1S,4R)-4-[3-(2,6-dichlorophenyl)-[1,2,4]triazolo[4,3-a]pyridin-6-yloxy]-1,2,3,4-tetrahydronaphthalen-1-yl]-urea], the IC50 (at p38alpha; in assay [1]) was under 10 nM in each case.

`CC(C)(C)c1cc(NC(=O)N[C@H]2CC[C@@H](Oc3ccc4nnc(C5CCCCC5)n4c3)c3ccccc32)n(CCN2CCOCC2)n1` [Example 34, 1-[5-tert-Butyl-2-(2-morpholin-4-yl-ethyl)-2H-pyrazol-3-yl]-3-[(1S,4R)-4-(3-cyclohexyl-[1,2,4]triazolo[4,3-a]pyridin-6-yloxy)-1,2,3,4-tetrahydro-naphthalen-1-yl]-urea partial formate salt]: the 50% inhibitory concentration (IC50) (at p38alpha; in assay [1]) was under 10 nM throughout.
